Test results: patent publication US11123354B2, “Method for the treatment of osteoarthritis” (ABIOGEN PHARMA S.P.A., priority 2016, dated 2021)

Key:
[1] = tested on: CTX-I (C-telopeptide of type I collagen); assay: CTX-I final serum concentration, MIA-induced OA rats, weekly treatment; assay type: in vivo, Sprague Dawley rats
Description: (§1) As an experimental model of OA induction, one involving the intra-articular administration of MIA (monosodium iodoacetate) was used.
(§2) The rats were anesthetized by a gaseous mixture of isoflurane and oxygen, and maintained in a supine position. Once the infrapatellar ligament was identified by touch, a single intra-articular injection of monosodium iodoacetate (MIA) was performed in the right knee, after having shaved the skin of the area, while keeping the joint slightly flexed. The amount of MIA injected was equal to 1 mg dissolved in 50 μl of saline solution, having a pH of about 4.5, as measured just before administration. The joint of the left knee was instead injected with 50 μl of saline solution alone, and this represented the internal control.
(§3) The treatment involved 4 weekly administrations of sodium chlodronate, followed by one week of follow-up.
(§4) The study included 8 treatment groups, each consisting of 10 male Sprague Dawley rats, specifically five treatment groups consisting of OA rats, on which the chlodronate doses of 2, 10, 20, 30, and 40 mg/ml, corresponding to 0.1, 0.5, 1, 1.5, and 2 mg/rat, were tested, and the remaining three groups represented by untreated OA rats, operated but untreated Sham rats, and rats administered only with placebo at pH 4.5.
(§5) During the treatment period, the animals were regularly checked in relation to the increase in body mass, food intake, and general health conditions. Clinical and hematological analyses were performed at the end of the study. The difference between the size of the edema in the two inflamed knees for all the observation groups, the final serum concentration of CTX-I (C-telopeptide of type I collagen), as a marker of bone turnover, and the final serum concentration of CTX-II (C-telopeptide of type II collagen), as a marker of cartilage turnover were investigated.
Considering that CTX-I (C-telopeptide of type I collagen) is a bone turnover marker and its concentration levels are proportional to the osteoclastic activity, the measurement of CTX-I final serum concentration value is a measure of the treatment efficacy.

[2] = tested on: OA rats (bilateral anterior cruciate ligament surgical resection); assay: Histopathological evaluation (modified Mankin score), OA rats by anterior cruciate ligament resection, monthly treatment; assay type: in vivo, Sprague Dawley rats; conditions: 4 monthly i.a. doses, scale 0 (normal) to 15 (seriously damaged)
Description: In this study, the efficacy of a treatment performed by monthly intra-articular administration of sodium chlodronate on male “Sprague Dawley” rats affected by OA was evaluated. The treatment involved 4 monthly doses of sodium chlodronate, followed by one month of follow-up.
In the experimental model, OA was induced in rats by bilateral anterior cruciate ligament surgical resection in both hind limbs.
A volume of 50 μL of treatment solution, having a pH of about 4.5, as measured just before administration, was injected into the intra-articular cavity of each knee.
The study included 5 treatment groups, each consisting of 10 male rats, specifically two treatment groups consisting of OA rats, on which chlodronate doses of 8 and 12 mg/ml, corresponding to 0.4 and 0.6 mg/rat, were tested, and remaining three groups represented by untreated OA rats, operated but untreated Sham rats, and rats receiving placebo alone.
During the treatment period, the animals were regularly checked in relation to the increase in body mass, food intake and general health conditions. Clinical and hematological analyses were performed at the end of the study. […]

[3] = pH, osmolality and density of unitary dosage form aqueous solutions; assay type: physicochemical; conditions: aqueous solution
Description: Osmolality values were determined according to USP, chapter […] under the heading “Osmolality and Osmolarity”.
Certain compositions of the invention were prepared in unitary dosage form, in the form of an aqueous solution, for weekly, biweekly or monthly administration, comprising sodium chlodronate in tetrahydrate form, whose quali-quantitative compositions and pH, osmolality, and density values, are shown in Table 8 below.
As it is apparent from the table, all the compositions prepared had particularly high osmolality values. Osmolalities were determined by GONOTEC Osmometer, OSMOMAT 3000-D model, serial number 3000150264 according to USP, chapter 785 under the title “Osmolality and Osmolarity”.

[4] = tested on: patients with osteoarthritis of the knee; conditions: 20 patients, IA 0.9 mg on days 1, 3, 7, 10, 14 and 21; cited from earlier work
[5] = tested on: COMP (Cartilage Oligomeric Matrix Protein); assay: COMP final serum concentration, MIA-induced OA rats, weekly treatment; assay type: in vivo, Sprague Dawley rats
Description: as §1, §2, §3, §4
Considering that the presence of high concentrations of COMP in serum is an indication of the progression of osteoarthritic disease, the measurement of COMP (Cartilage Oligomeric Matrix Protein) final serum concentration is a measure of treatment efficacy.
In fact, COMP seems to play a fundamental role in the formation and structure of articular cartilage, as it has a regulatory function in assembling type II collagen fibers and, together with other matrix proteins, stabilizes the network of collagen fibers. During osteoarthritis, a greater amount of this protein was found in the blood, therefore a higher concentration of COMP in the serum corresponds to a more advanced stage of osteoarthritis degeneration.

[6] = tested on: CTX-II (C-telopeptide of type II collagen); assay: CTX-II final serum concentration, MIA-induced OA rats, weekly treatment; assay type: in vivo, Sprague Dawley rats
Description: as §1, §2, §3, §4, §5
Considering that CTX-II (C-telopeptide of type II collagen) is a cartilage turnover marker and its concentration levels are proportional to the […], the measurement of CTX-II final serum concentration value is a measure of the treatment efficacy.

[7] = 5.00 mg sodium chlodronate per unitary dosage form (1 ml)
[8] = 10.00 mg sodium chlodronate per unitary dosage form (1 ml)
[9] = 20.00 mg sodium chlodronate per unitary dosage form (1 ml)
[10] = 30.00 mg sodium chlodronate per unitary dosage form (1 ml)
[11] = 40.00 mg sodium chlodronate per unitary dosage form (1 ml)

Compound: O=P([O-])(O)C(Cl)(Cl)P(=O)([O-])O.[Na+].[Na+] [Sodium Chlodronate, sodium chlodronate]
- CTX-I Value ([1]; 2 mg/mL weekly i.a.): 4.77 pg/mL
- CTX-I Value ([1]; 10 mg/mL weekly i.a.): 4.87 pg/mL
- CTX-I Value ([1]; 20 mg/mL weekly i.a.): 4.6 pg/mL
- CTX-I Value ([1]; 30 mg/mL weekly i.a.): 4.36 pg/mL
- CTX-I Value ([1]; 40 mg/mL weekly i.a.): 4.16 pg/mL
- Mankin Index Mean Value ± SEM ([2]; 8 mg/ml (0.4 mg/rat)): 4.9 ± 0.458
- Mankin Index Mean Value ± SEM ([2]; 12 mg/ml (0.6 mg/rat)): 2.6 ± 0.618
- Density [3, 7]: 1.014 g/mL
- Osmolality (mOsm/Kg) [3, 7]: 395 mOsm/Kg
- pH [3, 7]: 4.6
- Density [3, 8]: 1.016 g/mL
- Osmolality (mOsm/Kg) [3, 8]: 400 mOsm/Kg
- pH [3, 8]: 4.5
- Density [3, 9]: 1.021 g/mL
- Osmolality (mOsm/Kg) [3, 9]: 388 mOsm/Kg
- pH [3, 9]: 4.4
- Density [3, 10]: 1.027 g/mL
- Osmolality (mOsm/Kg) [3, 10]: 408 mOsm/Kg
- pH [3, 10]: 4.4
- Density [3, 11]: 1.032 g/mL
- Osmolality (mOsm/Kg) [3, 11]: 413 mOsm/Kg
- pH [3, 11]: 4.5
- effect on pain symptoms (spontaneous pain and pain in movement) [4]: marked positive effect
- COMP Value ([5]; 2 mg/mL weekly i.a.): 5.46 ng/mL
- COMP Value ([5]; 10 mg/mL weekly i.a.): 5.52 ng/mL
- COMP Value ([5]; 20 mg/mL weekly i.a.): 5.24 ng/mL
- COMP Value ([5]; 30 mg/mL weekly i.a.): 4.9 ng/mL
- COMP Value ([5]; 40 mg/mL weekly i.a.): 3.52 ng/mL
- CTX-II Value ([6]; 2 mg/mL weekly i.a.): 6.84 pg/mL
- CTX-II Value ([6]; 10 mg/mL weekly i.a.): 6.48 pg/mL
- CTX-II Value ([6]; 20 mg/mL weekly i.a.): 5.93 pg/mL
- CTX-II Value ([6]; 30 mg/mL weekly i.a.): 5.67 pg/mL
- CTX-II Value ([6]; 40 mg/mL weekly i.a.): 5.73 pg/mL
